The test deals with HIV-1 303B. The test is described as follows: microbe, parasite or virus in culture. The test is classed as cell-based. The conditions noted are these: for overall antiviral effect of the two-drug combination with Example 19 (in words): classification from combination indices and confidence intervals; for Combination Indices at 50% HIV Inhibition (Confidence Interval) / Combination Indices at 75% HIV Inhibition (Confidence Interval) / Combination Indices at 90% HIV Inhibition (Confidence Interval): in combination with Example 19, 95% CI in parenthesis. Here is the method:
Virus and cell lines. The T-cell line, MT-2, was obtained through the AIDS Research and Reference Reagent Program. MT-2 cells were sub-cultured twice a week in RPMI 1640 medium supplemented with 10% fetal bovine serum, 2 mM L-glutamine, and 10 mM HEPES buffer pH 7.5. The HIV-1303B virus is a molecular clone derived from the NL4-3 strain of HIV-1 that was obtained from the NIH AIDS Research and Reference Reagent Program. For combinations with enfuvirtide, the NL36G virus was used. […] Virus stocks were made by transfecting 293T cells with a proviral DNA clone using LipofectAMINE PLUS (Invitrogen), according to the manufacturer's instructions. Three days post-transfection, virus was harvested and passaged once in MT-2 cells before titration in MT-2 cells.
Chemicals. Example 19, atazanavir, didanosine, stavudine, efavirenz, and enfuvirtide (T-20) were synthesized by Bristol-Myers Squibb using published or known reactions. […] Tenofovir was tested as tenofovir disopoxil fumarate. Zidovudine and zalcitabine were purchased from Sigma, and emtricitabine from Moravek Biochemicals.
Drug Susceptibility and Cytotoxicity Assays. For drug susceptibility assays, MT-2 cells were infected with HIV-1 303B (or NL36G), at an MOI of 0.001, and seeded into 96-well microtiter plates (2.5×10^5 cells/ml) containing serial dilutions of test compounds. […] Each drug ratio consisted of an array of 3-fold serial dilutions, and was performed with eight or more replicas on separate multi-well plates. HIV infected cells were incubated at 37° C. in 5% CO2, and on day five post-infection, the extent of virus replication was measured by determining cell viability using the CellTiter 96 Aqueous Non-Radioactive Cell Proliferation Assay (Promega). […] Cytotoxicity assays were performed in parallel with the combination experiments. Here, uninfected cells were exposed to the same drug combinations, and assayed after five days for cell viability using the MTS assay.
Analysis of Drug Combination Effects. For determination of combination index (CI) values, drugs were diluted in a fixed ratio and multiple ratios were analyzed. The drug serial dilutions spanned a range of concentrations near the EC50 value of each compound, so that equivalent antiviral activities could be compared. The normalized responses from each therapy are fit to the four-parameter logistic model with a common minimum and maximum across all therapies. Conceptually, this equation can be written as
In this equation, Fa stands for “fraction affected,” and represents the fraction of the viral load that has been inactivated. […] The EC50, represented by the Ci in the above equation, is the drug concentration that is expected to reduce the amount of virus by 50%, and the Bi are the parameters that reflects the slope of the concentration-response curve. For this assay, A is the bottom plateau common to all curves, D is the common top plateau, Bj is the “slope” parameter for the jth therapy, and Cj is the concentration that produces an effect equal to the average of A and D for the jth therapy. Therapies 1 and 2 correspond to mono therapies 1 and 2, respectively. Therapies 3, 4, and 5 correspond to the three combination therapies. EC50 values for each drug were determined from the single drug experiments, using the above equation. The equation was fit using a nonlinear regression routine (Proc Nlin) in PC SAS version 8.2 (SAS Institute Inc.).
To assess antiviral effects of different drug combination treatments, combination indices (CIs) were calculated according to Chou and Rideout. The combination index was computed as
In this equation [Dm]1 and [Dm]2 are the concentrations of drugs that would individually produce a specific level of effect, while [D]1 and [D]2 are the concentrations of drugs in combination that would produce the same level of effect.
Theoretically, additivity is implied if the CI is equal to one, synergy if the CI is less than one, and antagonism if the CI is greater than one.

Where [1] appears, read: Human immunodeficiency virus 1, MT2, 120 h.
Where [2] appears, read: EC50 ratio Example 19:comparator 1:1.
Where [3] appears, read: EC50 ratio Example 19:comparator 1:2.5.
Setting [4] is: EC50 ratio Example 19:comparator 2.5:1.

Where two headings read alike, the source gives them in different places.

A word on the EC50: it is the concentration needed to bring the measured effect to its halfway point. As to `Cc1c(O)cccc1C(=O)N[C@@H](CSc1ccccc1)[C@H](O)CN1C[C@H]2CCCC[C@H]2C[C@H]1C(=O)NC(C)(C)C` [Nelfinavir, nelfinavir], the “overall antiviral effect of the two-drug combination with Example 19 (in words)” value (shortened to “overall antiviral effect”) is “synergistic-additive effect”. In addition, the EC50 under setting [1] is 22 nM. Besides, under setting [2], the “Combination Indices at 50% HIV Inhibition (Confidence Interval)” value was 0.79 (0.73, 0.86); the “Combination Indices at 75% HIV Inhibition (Confidence Interval)” value was 0.75 (0.67, 0.82); the “Combination Indices at 90% HIV Inhibition (Confidence Interval)” value is listed as 0.71 (0.56, 0.84). Also, under setting [3], the “Combination Indices at 50% HIV Inhibition (Confidence Interval)” value is reported as 0.97 (0.89, 1.06); the “Combination Indices at 75% HIV Inhibition (Confidence Interval)” value was 0.87 (0.79, 0.95); the “Combination Indices at 90% HIV Inhibition (Confidence Interval)” value was 0.78 (0.68, 0.88). Under setting [4], the “Combination Indices at 50% HIV Inhibition (Confidence Interval)” value is reported as 1.09 (1.00, 1.18); the “Combination Indices at 75% HIV Inhibition (Confidence Interval)” value is on record as 0.98 (0.89, 1.08); the “Combination Indices at 90% HIV Inhibition (Confidence Interval)” value was 0.90 (0.76, 1.03).

In the case of `Cc1ccnc2c1NC(=O)c1cccnc1N2C1CC1` [Nevirapine, nevirapine], the “overall antiviral effect” value is “synergism at most effective concentrations and molar ratios”. Moreover, the concentration giving a half-maximal response (EC50) under setting [1] was determined as 95 nM. The “overall antiviral effect” value (listed as nevaripine) is “strong synergistic effects”. Moreover, under setting [2], the “Combination Indices at 50% HIV Inhibition (Confidence Interval)” value is 0.72 (0.62, 0.82); the “Combination Indices at 75% HIV Inhibition (Confidence Interval)” value is on record as 0.69 (0.55, 0.83); the “Combination Indices at 90% HIV Inhibition (Confidence Interval)” value was 0.66 (0.46, 0.87). Moreover, under setting [3], the “Combination Indices at 50% HIV Inhibition (Confidence Interval)” value is listed as 0.76 (0.64, 0.87); the “Combination Indices at 75% HIV Inhibition (Confidence Interval)” value was 0.81 (0.64, 0.97); the “Combination Indices at 90% HIV Inhibition (Confidence Interval)” value was 0.87 (0.59, 1.15). Besides, under setting [4], the “Combination Indices at 50% HIV Inhibition (Confidence Interval)” value is given as 0.73 (0.62, 0.83); the “Combination Indices at 75% HIV Inhibition (Confidence Interval)” value is 0.68 (0.55, 0.81); the “Combination Indices at 90% HIV Inhibition (Confidence Interval)” value was 0.64 (0.45, 0.84).

As for `CC(C)c1nc(CN(C)C(=O)N[C@H](C(=O)N[C@@H](Cc2ccccc2)C[C@H](O)[C@H](Cc2ccccc2)NC(=O)OCc2cncs2)C(C)C)cs1` [Ritonavir, ritonavir], the “overall antiviral effect” value is listed as “additive relationship with Example 19 cannot be ruled out”. Moreover, under setting [1], the EC50 is 48 nM. Under setting [2], the “Combination Indices at 50% HIV Inhibition (Confidence Interval)” value is 0.80 (0.67, 0.93); the “Combination Indices at 75% HIV Inhibition (Confidence Interval)” value is 0.57 (0.41, 0.73); the “Combination Indices at 90% HIV Inhibition (Confidence Interval)” value was 0.44 (0.23, 0.65). Moreover, under setting [3], the “Combination Indices at 50% HIV Inhibition (Confidence Interval)” value is on record as 0.73 (0.59, 0.88); the “Combination Indices at 75% HIV Inhibition (Confidence Interval)” value is listed as 0.64 (0.48, 0.80); the “Combination Indices at 90% HIV Inhibition (Confidence Interval)” value was 0.61 (0.38, 0.85). For the same molecule, under setting [4], the “Combination Indices at 50% HIV Inhibition (Confidence Interval)” value is 0.92 (0.72, 1.11); the “Combination Indices at 75% HIV Inhibition (Confidence Interval)” value was 0.72 (0.50, 0.93); the “Combination Indices at 90% HIV Inhibition (Confidence Interval)” value is 0.59 (0.32, 0.87).

`CC(C)(C)NC(=O)[C@@H]1C[C@@H]2CCCC[C@@H]2CN1C[C@@H](O)[C@H](Cc1ccccc1)NC(=O)[C@H](CC(N)=O)NC(=O)c1ccc2ccccc2n1` [Saquinavir, saquinavir]: the “overall antiviral effect” value is “confidence interval is below one at all concentrations and effective levels”. Also, the EC50 under setting [1] came out at 11 nM. Further, under setting [2], the “Combination Indices at 50% HIV Inhibition (Confidence Interval)” value is reported as 0.77 (0.70, 0.84); the “Combination Indices at 75% HIV Inhibition (Confidence Interval)” value was 0.67 (0.58, 0.75); the “Combination Indices at 90% HIV Inhibition (Confidence Interval)” value is recorded as 0.58 (0.47, 0.69). Further, under setting [3], the “Combination Indices at 50% HIV Inhibition (Confidence Interval)” value was 0.43 (0.38, 0.48); the “Combination Indices at 75% HIV Inhibition (Confidence Interval)” value is reported as 0.51 (0.42, 0.59); the “Combination Indices at 90% HIV Inhibition (Confidence Interval)” value was 0.59 (0.44, 0.74). Further, under setting [4], the “Combination Indices at 50% HIV Inhibition (Confidence Interval)” value is 0.81 (0.72, 0.89); the “Combination Indices at 75% HIV Inhibition (Confidence Interval)” value is recorded as 0.77 (0.66, 0.89); the “Combination Indices at 90% HIV Inhibition (Confidence Interval)” value is reported as 0.74 (0.57, 0.91).

Regarding `Cc1cn([C@H]2C=C[C@@H](CO)O2)c(=O)[nH]c1=O` [Stavudine, stavudine], the “overall antiviral effect” value is listed as “synergistic”. For the same molecule, the concentration giving a half-maximal response (EC50) under setting [1] was 241 nM. Besides, under setting [2], the “Combination Indices at 50% HIV Inhibition (Confidence Interval)” value is 0.52 (0.43, 0.61); the “Combination Indices at 75% HIV Inhibition (Confidence Interval)” value is recorded as 0.46 (0.36, 0.56); the “Combination Indices at 90% HIV Inhibition (Confidence Interval)” value was 0.42 (0.26, 0.57). Moreover, under setting [3], the “Combination Indices at 50% HIV Inhibition (Confidence Interval)” value is 0.60 (0.48, 0.71); the “Combination Indices at 75% HIV Inhibition (Confidence Interval)” value is recorded as 0.60 (0.46, 0.74); the “Combination Indices at 90% HIV Inhibition (Confidence Interval)” value is 0.61 (0.40, 0.83). Also, under setting [4], the “Combination Indices at 50% HIV Inhibition (Confidence Interval)” value is on record as 0.70 (0.57, 0.84); the “Combination Indices at 75% HIV Inhibition (Confidence Interval)” value is reported as 0.63 (0.48, 0.79); the “Combination Indices at 90% HIV Inhibition (Confidence Interval)” value is on record as 0.58 (0.37, 0.81).

As for `C[C@H](Cn1cnc2c(N)ncnc21)OCP(=O)(O)O` [Tenofovir, tenofovir], the “overall antiviral effect” value is “synergistic to additive”. Moreover, under setting [2], the “Combination Indices at 50% HIV Inhibition (Confidence Interval)” value is given as 0.66 (0.57, 0.75); the “Combination Indices at 75% HIV Inhibition (Confidence Interval)” value is reported as 0.54 (0.45, 0.62); the “Combination Indices at 90% HIV Inhibition (Confidence Interval)” value is given as 0.43 (0.33, 0.53). Under setting [3], the “Combination Indices at 50% HIV Inhibition (Confidence Interval)” value is given as 0.68 (0.59, 0.77); the “Combination Indices at 75% HIV Inhibition (Confidence Interval)” value was 0.60 (0.48, 0.72); the “Combination Indices at 90% HIV Inhibition (Confidence Interval)” value is reported as 0.52 (0.36, 0.69). In addition, under setting [4], the “Combination Indices at 50% HIV Inhibition (Confidence Interval)” value was 0.90 (0.77, 1.04); the “Combination Indices at 75% HIV Inhibition (Confidence Interval)” value is on record as 0.84 (0.67, 1.01); the “Combination Indices at 90% HIV Inhibition (Confidence Interval)” value is 0.79 (0.55, 1.03). For the same molecule, the concentration for a half-maximal effect (EC50) (single drug, MT-2 cells, MOI 0.001, day five, MTS cell viability, read-out: EC50) was 18 nM.

With `Nc1ccn([C@H]2CC[C@@H](CO)O2)c(=O)n1` [Zalcitabine, zalcitabine], the “overall antiviral effect” value is listed as “synergistic to additive”. Also, the EC50 under setting [1] was determined as 124 nM. For the same molecule, under setting [2], the “Combination Indices at 50% HIV Inhibition (Confidence Interval)” value was 0.61 (0.48, 0.73); the “Combination Indices at 75% HIV Inhibition (Confidence Interval)” value is recorded as 0.56 (0.39, 0.73); the “Combination Indices at 90% HIV Inhibition (Confidence Interval)” value is 0.53 (0.28, 0.79). For the same molecule, under setting [3], the “Combination Indices at 50% HIV Inhibition (Confidence Interval)” value was 0.55 (0.44, 0.66); the “Combination Indices at 75% HIV Inhibition (Confidence Interval)” value is 0.40 (0.31, 0.49); the “Combination Indices at 90% HIV Inhibition (Confidence Interval)” value is on record as 0.30 (0.18, 0.42). Besides, under setting [4], the “Combination Indices at 50% HIV Inhibition (Confidence Interval)” value was 0.80 (0.62, 0.97); the “Combination Indices at 75% HIV Inhibition (Confidence Interval)” value is recorded as 0.82 (0.58, 1.07); the “Combination Indices at 90% HIV Inhibition (Confidence Interval)” value is recorded as 0.86 (0.46, 1.26).

Source of the values: US7491819B1 (priority 2004, dated 2009).
